Test results: patent publication US20200190593A1, “SPLICEOSOME MUTATIONS AND USES THEREOF” (EISAI R&D MANAGEMENT CO., LTD., priority 2017, published 2020)
“Also recorded” adds a separate entry of the source.

Experiments:
HCT116 cells = experiment: CellTiter-Glo growth inhibition, parental HCT116; type: cell-based; details: in HCT116
Method: Parental HCT116 cells were obtained from ATCC and cultured in RPMI 1640 medium (Thermo Fisher, GIBCO #11875) supplemented with 10% FBS. Parental Panc0504 cells were obtained from ATCC and cultured in GIBCO RPMI 1640 medium (Thermo Fisher, GIBCO #11875) supplemented with glucose (to 4.5 g/L final), HEPES (10 mM final), sodium pyruvate (1 mM final), human insulin (10 μg/ml final) and 15% FBS. Cell line authentication was achieved by genetic profiling using polymorphic short tandem repeat (STR) loci (ATCC). All cell lines were free of mycoplasma contamination. Lenti-X-293T cells (Clontech Laboratories, Inc. Cat #632180), a cell line for lentiviral packaging, was maintained in Dulbecco's modified Eagle's medium (Thermo Fisher, GIBCO #11965) containing 10% fetal bovine serum and 4 mM L-glutamine. WT PHF5A cDNA was obtained from Genecopoeia and cloned into a pDONR 221 vector (Thermo Fisher). Sequence verified positive clones were cloned into pLenti6.3N5 vector (Thermo Fisher) through LR recombination. Mutagenesis of Y36 and V37 were carried using Agilent Quickchange II kit following manufacturer's recommendation using the PHF5A WT plasmid. All primers used for mutagenesis were designed used the QuikChange Primer Design tool by Agilent. Verified positive clones of PHF5A Y36 or V37 variants were used for lentivirus production using X293T cells. Parental HCT116 cells and Panc0504 cells were then infected with virus containing medium and selected with Blasticidin S (Thermo Fisher) at 10 μg/ml for one week. Engineered cell lines were maintained in the same medium without antibiotics. The following primary antibodies were used at 1:1000 dilution for western blot analysis in LI-COR buffer (LI-COR): α-SF3B1 mouse monoclonal antibody (MBL, D221-3), α-SF3B3 rabbit polyclonal antibody (Protein Tech, 14577-1-AP), α-SF3B4 goat polyclonal antibody (Santa Cruz, 14276), α-SF3B6/p14 rabbit polyclonal antibody (Protein Tech, 12379-1-AP), α-PHF5A rabbit polyclonal antibody (Protein Tech, 15554-1-AP). α-GAPDH rabbit polyclonal antibody (Sigma, G9545) was used at 1:10,000. […]
(§1) For CellTiter-Glo analysis, 500 cells were seeded in each well of a 384-well plate the day before compound addition. […] 72 hours post compound addition; CellTiter-Glo reagent was added to the medium, incubated and assayed on EnVision Multilabel Reader (PerkinElmer). The luminescence value from each treatment sample was normalized to the average value of the respective DMSO control. […] For heatmap summarization of IC50 shifts, IC50 value were extracted from dosage response curves and the fold changes of IC50 values in PHF5A variants expressing lines over that of the WT lines were calculated and plotted using TIBCO Spotfire software. […]

[1] = system: HCT116 resistant clones carrying SF3B1 (R1074H, V1078A/I) or PHF5A Y36C mutations; experiment: CellTiter-Glo growth inhibition profiling of E7107/herboxidiene resistant HCT116 clones; type: cell-based; details: 72 hour CellTiter-Glo, HCT116 resistant clones vs parental
Method: 2.5 million HCT116 cells were seeded in each 10 cm dish and treated with indicated dosages of splicing modulators for 2 weeks. Compounds were refreshed every 4 days. When needed, confluent dishes were split 1:3 and cells were allowed to recover overnight without splicing modulator treatment after re-seeding. At the end of the compound selection period, surviving individual clones were picked and transferred to 12-well plates. Individual resistant clones were further expanded without splicing modulator treatment and 1 million cells from each clone were pelleted for genomic DNA extraction using the DNeasy Blood & Tissue Kit from Qiagen. Whole exome sequencing (WXS) libraries were generated by Novogene Corporation using Agilent SureSelect Human All Exon V6 kit and sequenced on Illumina HiSeq platform. 12G raw data were gathered for each sample. WXS reads were then aligned to hg19 by BWA-MEM (Shi et al., Nature biotechnology 33, 661-7 (2015)) and somatic mutations were identified with MuTect2 (Schenone et al., Nature chemical biology 9, 232-40 (2013)) through Sentieon pipeline (Wacker et al., Nature chemical biology 8, 235-7 (2012)) by pairing resistant clone with parental cell lines. As the resistant clones for WXS were selected, the allele frequencies for the mutations which are responsible for the resistance should be high. Non-silent mutations (among the H3 curated spliceosome genes) with allele frequency higher than 0.2 were focused on.
For CellTiter-Glo analysis, 500 cells were seeded in each well of a 384-well plate the day before compound addition. An 11 part serial dilution was used starting with a top final dosage of 10 μM for ten additional doses. DMSO percentage was maintained throughout and a DMSO only control was included. 72 hours post compound addition; CellTiter-Glo reagent was added to the medium, incubated and assayed on EnVision Multilabel Reader (PerkinElmer). The luminescence value from each treatment sample was normalized to the average value of the respective DMSO control. The dosage response curve plots were generated using Graphpad Prism 6 and fit using nonlinear regression analysis and the log (inhibitor) vs. response—Variable slope (four parameters). For heatmap summarization of IC50 shifts, IC50 value were extracted from dosage response curves and the fold changes of IC50 values in PHF5A variants expressing lines over that of the WT lines were calculated and plotted using TIBCO Spotfire software. For IC50s greater than the top dosage, the values were arbitrarily set at 10 μM. Unsupervised clustering analysis was performed in TIBCO Spotfire using the following default parameters: Clustering method: UPGMA; Distance measure: Euclidean; Ordering weight: Average value; Normalization: (None); Empty value replacement: Constant value: 0.

[2] = system: MCL1 splicing (ES/IR events) in PHF5A WT expressing HCT116 cells; experiment: Taqman gene expression analysis of MCL1 isoforms, PHF5A WT cells; type: cell-based; details: 4 hour treatment
Method: (§2) 8000 cells of indicated genotypes were seeded in each well of 96-well plate and allowed to settle overnight. On the second day, 11 points serial dilution (1:4 fold dilution across) of indicated compound with a top dosage of 10 μM final was added to the culturing medium. 4 hour post compound addition, culturing medium was decanted and washed once with PBS. PBS was then decanted completely from the plate and Lysis buffer (plus DNase I) from TaqMan Gene Expression Cells-to-CT Kit (Thermo Fisher, cat # AM1729) was added according to the manual. After 5 mins incubation at room temperature on the shaker, stop solution was added to each well and incubated for 2 min. Reverse transcription was set up immediately using the Cells-to-CT Kit and cDNAs were used for quantitative real time PCR analysis using Viia7 (Thermo Fisher). Each reaction is multiplexed with a FAM labelled probe targeting specific target gene splicing isoforms and a VIC labelled probe targeted 18S rRNA as loading control. Therefore, the FAM Ct value in each well was first normalized to the VIC Ct value in the same well before further normalization to the FAM/VIC ratio of DMSO treated control samples to calculate fold change over DMSO. Graphs were generated using Graphpad Prism 6, n=2. Taqman gene expression probes used in these assays are: […]

[3] = system: PHF5A Y36C over-expressing PANC0504 cells; experiment: Growth inhibition in PANC0504 cells over-expressing PHF5A Y36C; type: cell-based
Method: Parental HCT116 cells were obtained from ATCC and cultured in RPMI 1640 medium (Thermo Fisher, GIBCO #11875) supplemented with 10% FBS. Parental Panc0504 cells were obtained from ATCC and cultured in GIBCO RPMI 1640 medium (Thermo Fisher, GIBCO #11875) supplemented with glucose (to 4.5 g/L final), HEPES (10 mM final), sodium pyruvate (1 mM final), human insulin (10 μg/ml final) and 15% FBS. Cell line authentication was achieved by genetic profiling using polymorphic short tandem repeat (STR) loci (ATCC). All cell lines were free of mycoplasma contamination. […]
as §1

[4] = system: MCL1 splicing (ES/IR events) in PHF5A Y36C expressing HCT116 cells; experiment: Taqman gene expression analysis of MCL1 isoforms, PHF5A Y36C cells; type: cell-based; details: PHF5A-Y36C cells compared to WT, increasing dosage
Method: as §2

[5] = system: global splicing in PHF5A WT expressing HCT116 cells; experiment: Whole transcriptome RNA-seq differential splicing, PHF5A WT cells; type: cell-based
Method: (§3) Either PHF5A WT or Y36C mutant overexpressing cells were treated with either DMSO or E7107 (100 nM and 10 μM) for 6 hours in quintuplicate before lysed in TRIzol reagent (Thermo Fisher). After phase separation, top aqueous phase was further processed using MagMAX™-96 Total RNA Isolation Kit (Thermo Fisher, AM1830) for RNA extraction. RNA quality was assessed using Agilent tapestation with RNA screen tape. RNA-seq libraries were prepared by Beijing Genomic Institute (BGI) and sequenced on Illumina Hiseq 4000 for 6G clean reads per sample. RNA-seq reads were aligned to hg19 by STAR (Dobin et al., Bioinformatics 29, 15-21 (2013)) and raw junction counts generated by STAR were used for calculating percent spliced in (PSI) to quantify splice junction usage relative to all other splice junctions that share the same splice site as described before (Darman et al., Cell reports 13, 1033-45 (2015)). Differential PSI were assessed between a pair of sample groups using moderated t-test defined in limma package (Smyth, Statistical applications in genetics and molecular biology 3, Article3 (2004)) in Bioconductor. The statistical p-values were corrected using the Benjamini-Hochberg procedure and q-values less than or equal to 0.05 were considered statistically significant. Gene IDs associated with significant splicing changes upon E7107 treatment as compared to DMSO in either PHF5A WT or Y36C cells were used for generation of the Venn Diagram using online tool (http://bioinformatics.psb.ugent.be/webtools/Venn/). PHF5A WT or Y36C specific genes identified from the Venn Diagram analysis were then subject to Gene Set Enrichment Analysis (GSEA) (http://software.broadinstitute.org/gsea/msigdb/annotate.jsp) using the Kyoto Encyclopedia of Genes and Genomes (KEGG) pathway database.
The number of reads which cover the splice junction which excludes a given cassette exon (exon skipping reads) were compared with both the number of spliced reads which share its 3′ splice site yet have an alternative 5′ splice site bordering the cassette exon (exon inclusion reads) and the number of reads which cross the exon-intron boundary at that same 3′ splice site (intron retention reads.) These counts were summed and their fractions from the percent spliced in (PSI) for the exon skipping event, the exon inclusion event, and the intron retention event, respectively, at that locus. The PSI for all significant exon skipping events derived from the comparison between 100 nM E7107 treatment in PHF5A Y36C cells and the respective DMSO controls (3883 events) and the PSI for the intron retention junction at the same locus were plotted. For all other treatments, the PSI of the exon skipping junction and the intron retention junction for each locus were plotted in the same order. PSI is averaged over samples in quintuplicate.

[6] = system: global splicing in PHF5A Y36C expressing HCT116 cells; experiment: Whole transcriptome RNA-seq differential splicing, PHF5A Y36C cells; type: cell-based
Method: as §3, with “Gene IDs associated with significant splicing changes upon E7107 treatment as compared to DMSO in either PHF5A WT or Y36C cells were used for generation of the Venn Diagram using online tool (http://bioinformatics.psb.ugent.be/webtools/Venn/). PHF5A WT or Y36C specific genes identified from the Venn Diagram analysis were then subject to Gene Set Enrichment Analysis (GSEA) (http://software.broadinstitute.org/gsea/msigdb/annotate.jsp) using the Kyoto Encyclopedia of Genes and Genomes (KEGG) pathway database.” left out

SF3B1 R1074H = biological target: T1, SF3B1 R1074H (Homo sapiens, UniProt O75533+Q7RTV0, R1074H); details: Yokoi et al. 2011; cited from earlier work
T1 construct: endogenous in cells; WiDr clones in the cited Yokoi et al. work

Molecule | GI50 (HCT116 cells; Homo sapiens, HCT-116) [nM] | resistance conferred by mutations in resistant clones (growth inhibition profiling) [1] | dose-dependent induction of MCL1 ES and IR events [2] | resistant phenotype upon PHF5A Y36C over-expression [3] | also measured
CNC(=O)O[C@@H](C)/C=C\C(=O)N[C@H]1CC[C@@H](C/C=C(C)/C=C/[C@@H]2C[C@]3(CO3)CC(C)(C)O2)CC1 [sudemycin D6] | 149 | SF3B1-R1074H mutation also conferred better resistance | IR events were not observed |  | 
CO[C@]1(C)C[C@@]2(CO2)[C@H](O)[C@@H](/C=C/C(C)=C/C[C@@H]2O[C@H](C)[C@H](NC(=O)/C=C\[C@H](C)OC(C)=O)C[C@@H]2C)O1 [spliceostatin A] |  | SF3B1-R1074H mutation also conferred better resistance; also recorded: show resistance to the Y36C clone |  |  | GI50 (HCT116 cells): 0.76 nM
CO[C@H]([C@@H](C)[C@H]1O[C@]1(C)C[C@H](C)/C=C/C=C(\C)[C@H]1O[C@@H](CC(=O)O)CC[C@@H]1C)[C@@H](C)O [herboxidiene] | 7.6 | PHF5A-Y36C mutation rendered more resistance | even more pronounced effect |  | 
sudemycin D6 |  | show resistance to the Y36C clone |  |  | 
CC(C)C[C@H](NC(=O)[C@H](Cc1ccccc1)NC(=O)c1cnccn1)B(O)O [bortezomib] |  | did not affect the cell lines sensitivity |  | not | 
CC[C@H](O)[C@@H](C)[C@H]1O[C@@H]1C[C@@](C)(O)/C=C/C=C(\C)C1OC(=O)C[C@H](O)CC[C@@](C)(O)[C@@H](OC(=O)N2CCN(C3CCCCCC3)CC2)/C=C/[C@@H]1C (stereo partly drawn) [Compound E7107] | 1.5 | SF3B1-R1074H mutation conferred the most robust resistance | “earlier” induction of MCL1 ES events than IR events at lower doses | partial resistant phenotype | MCL1-S production (ES events) [4]: enhanced to a higher level; number of introns with induced aberrant splicing ([5]; E7107, FIG. 4A): approximately 20,000; number of the 3883 Y36C related ES junctions showing reduced ES PSI and increased IR PSI in WT cells ([5]; E7107 treated WT vs Y36C cells): 2470; share of Y36C related ES junctions showing reduced ES PSI and increased IR PSI in WT cells ([5]; E7107 treated WT vs Y36C cells): ~64%; differential splicing events vs DMSO ([5]; PHF5A WT cells, 100 nM E7107): intron-retention (IR) events were predominant; MCL1 isoform events in RNA-seq sashimi plots ([5]; PHF5A WT cells, E7107 treatment): IR was the dominant event observed; differential splicing events vs DMSO ([6]; 100 nM E7107): the overall amount of IR events and their average fold change were greatly reduced; also recorded: the number of compound induced exon-skipping (ES) events was increased; MCL1 isoform events in RNA-seq sashimi plots ([6]; E7107 treatment): mainly ES events were observed yielding the MCL1-S form; effect of SF3B1 R1074H substitution on compound activity (SF3B1 R1074H): almost completely abolishes the splicing-modulating and anti-proliferative effects
